A word on the IC50: it is the concentration that gives 50% inhibition.

Numbered stars: 1 amine (or outer) side, 2 acyl side, 3 side chain; on linkers, the order of the positions; unused ones are H or OH. Bridge positions count the residues as written; N and C are the ends. Square brackets hold non-standard residues; d marks the D form. Side chains are listed from the residue outwards. Peptide text beside a SMILES is read from it. * marks the point of attachment. Nle(6-ylidene) = O=C([C@H](CCCC=[*:3])N[*:1])[*:2]; Dip = N[C@H](C(=O)O)C(c1ccccc1)c1ccccc1; Hag = O=C([C@H](CCC=[*:3])N[*:1])[*:2]; Palmitoyl = CCCCCCCCCCCCCCCC(=O)*; β3hF = N[C@H](CC(=O)O)Cc1ccccc1; AllylGly = C=CC[C@H](N)C(=O)O; Isovaleryl = CC(C)CC(=O)*; Ahx = NCCCCCC(=O)O

The target in the test is T1, human ferroportin (SLC40A1) (Homo sapiens, UniProt Q9NP59).
T1 sequence (Q9NP59 1-571): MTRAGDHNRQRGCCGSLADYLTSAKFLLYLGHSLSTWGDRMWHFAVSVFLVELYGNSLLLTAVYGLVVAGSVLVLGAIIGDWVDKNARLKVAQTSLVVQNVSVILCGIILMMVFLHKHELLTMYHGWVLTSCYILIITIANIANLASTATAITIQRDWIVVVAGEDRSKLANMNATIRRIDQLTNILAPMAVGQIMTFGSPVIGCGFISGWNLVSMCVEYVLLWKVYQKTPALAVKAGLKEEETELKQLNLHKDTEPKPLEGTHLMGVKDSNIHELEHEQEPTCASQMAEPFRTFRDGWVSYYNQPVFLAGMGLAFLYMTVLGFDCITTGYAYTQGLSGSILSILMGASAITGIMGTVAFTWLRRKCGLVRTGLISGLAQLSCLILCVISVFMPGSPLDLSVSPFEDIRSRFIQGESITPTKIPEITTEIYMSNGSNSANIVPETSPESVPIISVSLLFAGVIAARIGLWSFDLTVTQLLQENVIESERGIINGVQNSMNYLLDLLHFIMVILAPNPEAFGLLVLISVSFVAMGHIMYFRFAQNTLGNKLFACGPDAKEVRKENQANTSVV
Description: FPN activity assay: internalization/degradation of ferroportin-GFP in stably transfected HEK293 cells (decrease in GFP fluorescence). The class given is cell-based. As to conditions: compound incubated at least 18 hours. The procedure:
Peptide analogues were tested in vitro for induction of internalization of the human ferroportin protein. Following internalization, the ferroporin protein is degraded. The assay used (FPN activity assay) measures a decrease in fluorescence of the receptor. The cDNA encoding the human ferroportin (SLC40A1) was cloned from a cDNA clone from Origene (NM_014585). The DNA encoding the ferroportin was amplified by PCR using primers also encoding terminal restriction sites for subcloning, but without the termination codon. The ferroportin receptor was subcloned into a mammalian GFP expression vector containing a neomycin (G418) resistance marker in such that the reading frame of the ferroportin was fused in frame with the GFP protein. The fidelity of the DNA encoding the protein was confirmed by DNA sequencing. HEK293 cells were used for transfection of the ferroportin-GFP receptor expression plasmid. The cells were grown according to standard protocol in growth medium and transfected with the plasmids using Lipofectamine (manufacturer's protocol, Invitrogen). The cells stably expressing ferroportin-GFP were selected using G418 in the growth medium (in that only cells that have taken up and incorporated the cDNA expression plasmid survive) and sorted several times on a Cytomation MoFloTM cell sorter to obtain the GFP-positive cells (488 nm/530 nm). The cells were propagated and frozen in aliquots. […] Compound was added to desired final concentration for at least 18 hours in the incubator. […] Compound was added to desired final concentration for at least 18 hours but no more than 24 hours in the incubator. […] The “RI” in RI-Mini-Hepcidin refers to Retro Inverse. A retro inverse peptide is a peptide with a reversed sequence in all D amino acids. An example is that […] becomes […]. The EC50 of these reference compounds for ferroportin internalization/degradation was determined according to the FPN activity assay described above. These peptides served as control standards.
For `CCCCCCCCCCCCCCCC(=O)NCCCCCC(=O)NCCCC[C@H](NC(=O)C[C@H](Cc1ccccc1)NC(=O)[C@@H]1CCC=CCC[C@H](NC(=O)CC(C)C)C(=O)N[C@@H]([C@@H](C)O)C(=O)N[C@@H](Cc2c[nH]cn2)C(=O)N[C@@H](C(c2ccccc2)c2ccccc2)C(=O)N2CCC[C@H]2C(=O)N[C@@H]([C@@H](C)CC)C(=O)N1)C(N)=O` [Compd 19] (Isovaleryl-[Hag]TH[Dip]PI[Hag][β3hF]K([Ahx-Palmitoyl])-NH2; staple 1-7), the half-inhibitory concentration (IC50) was over 500 nM.
With `CCCCCCCCCCCCCCCC(=O)NCCCCCC(=O)NCCCC[C@H](NC(=O)C[C@H](Cc1ccccc1)NC(=O)[C@@H](CCCCN)NC(=O)[C@@H](NC(=O)[C@@H]1CCC=CCC[C@H](NC(=O)[C@H](Cc2c[nH]cn2)NC(=O)[C@@H](NC(=O)[C@H](CCC(=O)O)NC(=O)CC(C)C)[C@@H](C)O)C(=O)N2CCC[C@H]2C(=O)N1)[C@@H](C)CC)C(=O)N[C@H](CCCCN)C(N)=O` [Compd 5] (Isovaleryl-ETH[Hag]P[Hag]I[dK][β3hF]K([Ahx-Palmitoyl])[dK]-NH2; staple 4-6) the figure was over 500 nM; with `CCCCCCCCCCCCCCCC(=O)NCCCCCC(=O)NCCCC[C@@H]1NC(=O)[C@@H]2CCCN2C(=O)[C@H](C(c2ccccc2)c2ccccc2)NC(=O)[C@H](Cc2c[nH]cn2)NC(=O)[C@H]([C@@H](C)O)NC(=O)[C@@H](NC(=O)CC(C)C)CCC=CCC[C@@H](C(=O)N[C@H](CC(=O)N[C@H](CCCCN)C(N)=O)Cc2ccccc2)NC1=O` (single isomer, unassigned) [Compd 38], over 500 nM; with `CCCCCCCCCCCCCCCC(=O)NCCCCCC(=O)NCCCC[C@H](NC(=O)C[C@H](Cc1ccccc1)NC(=O)[C@@H]1CCC=CCC[C@H](NC(=O)CC(C)C)C(=O)N[C@@H]([C@@H](C)O)C(=O)N[C@@H](Cc2c[nH]cn2)C(=O)N[C@@H](C(c2ccccc2)c2ccccc2)C(=O)N2CCC[C@H]2C(=O)N1)C(N)=O` (single isomer, unassigned) [Compd 20], over 500 nM.
Molecule `CCCCCCCCCCCCCCCC(=O)NCCCCCC(=O)NCCCC[C@H](NC(=O)C[C@H](Cc1ccccc1)NC(=O)[C@@H]1CCC=CCC[C@H](NC(=O)CC(C)C)C(=O)N[C@@H]([C@@H](C)O)C(=O)N[C@@H](Cc2c[nH]cn2)C(=O)N[C@@H](C(c2ccccc2)c2ccccc2)C(=O)N2CCC[C@H]2C(=O)N1)C(N)=O` (single isomer, unassigned) [Compd 86] showed a half-maximal inhibitory concentration (IC50) of over 500 nM.
The molecule `CCCCCCCCCCCCCCCC(=O)NCCCCCC(=O)NCCCC[C@H](NC(=O)C[C@H](Cc1ccccc1)NC(=O)[C@@H](CCCCN)NC(=O)[C@@H](NC(=O)[C@@H]1CCC=CC[C@H](NC(=O)[C@H](Cc2c[nH]cn2)NC(=O)[C@@H](NC(=O)[C@H](CCC(=O)O)NC(=O)CC(C)C)[C@@H](C)O)C(=O)N2CCC[C@H]2C(=O)N1)[C@@H](C)CC)C(=O)N[C@H](CCCCN)C(N)=O` [Compd 4] (Isovaleryl-ETH[AllylGly]P[Hag]I[dK][β3hF]K([Ahx-Palmitoyl])[dK]-NH2; staple 4-6) showed an IC50 of over 500 nM.
Take `CCCCCCCCCCCCCCCC(=O)NCCCCCC(=O)NCCCC[C@H](NC(=O)C[C@H](Cc1ccccc1)NC(=O)[C@@H]1CCC=CCC[C@H](NC(=O)CC(C)C)C(=O)N[C@@H]([C@@H](C)O)C(=O)N[C@@H](Cc2c[nH]cn2)C(=O)N[C@@H](C)C(=O)N2CCC[C@H]2C(=O)N[C@@H](C)C(=O)N[C@@H]([C@@H](C)CC)C(=O)N1)C(=O)N[C@H](CCCCN)C(N)=O` [Compd 43] (Isovaleryl-[Hag]THAPAI[Hag][β3hF]K([Ahx-Palmitoyl])[dK]-NH2; staple 1-8): the IC50 is over 500 nM.
In the case of `CCCCCCCCCCCCCCCC(=O)NCCCCCC(=O)NCCCC[C@H](NC(=O)C[C@H](Cc1ccccc1)NC(=O)[C@@H](CCCCN)NC(=O)[C@@H](NC(=O)[C@@H]1CCC=CCC[C@H](NC(=O)[C@@H](NC(=O)[C@H](Cc2c[nH]cn2)NC(=O)[C@@H](NC(=O)[C@H](CCC(=O)O)NC(=O)CC(C)C)[C@@H](C)O)C(c2ccccc2)c2ccccc2)C(=O)N1)[C@@H](C)CC)C(=O)N[C@H](CCCCN)C(N)=O` [Compd 11] it was over 500 nM; in that of `CCCCCCCCCCCCCCCC(=O)NCCCCCC(=O)NCCCC[C@H](NC(=O)C[C@H](Cc1ccccc1)NC(=O)[C@@H]1CCC=CCC[C@H](NC(=O)CC(C)C)C(=O)N[C@@H]([C@@H](C)O)C(=O)N[C@@H](Cc2c[nH]cn2)C(=O)N[C@@H](CC(C)(C)C)C(=O)N2CCC[C@H]2C(=O)N[C@@H](C)C(=O)N[C@@H]([C@@H](C)CC)C(=O)N1)C(=O)N[C@H](CCCCN)C(N)=O` [Compd 60], 10 to 100 nM; in that of `CCCCCCCCCCCCCCCC(=O)NCCCCCC(=O)NCCCC[C@@H]1NC(=O)[C@H](C)NC(=O)[C@@H]2CCCN2C(=O)[C@H](C(c2ccccc2)c2ccccc2)NC(=O)[C@H](Cc2c[nH]cn2)NC(=O)[C@H]([C@@H](C)O)NC(=O)[C@@H](NC(=O)CC(C)C)CCC=CCC[C@@H](C(=O)N[C@H](CC(=O)N[C@H](CCCCN)C(N)=O)Cc2ccccc2)NC1=O` (single isomer, unassigned) [Compd 39], 100 to 500 nM.
With `CCCCCCCCCCCCCCCC(=O)NCCCCCC(=O)NCCCC[C@@H]1NC(=O)[C@@H]2CCCN2C(=O)[C@H](C(c2ccccc2)c2ccccc2)NC(=O)[C@H](Cc2c[nH]cn2)NC(=O)[C@H]([C@@H](C)O)NC(=O)[C@@H](NC(=O)CC(C)C)CCCC=CCCC[C@@H](C(=O)N[C@H](CC(=O)N[C@H](CCCCN)C(N)=O)Cc2ccccc2)NC1=O` [Compd 35] (Isovaleryl-[Nle(6-ylidene)]TH[Dip]PK([Ahx-Palmitoyl])[Nle(6-ylidene)][β3hF][dK]-NH2; staple 1-7) the figure was over 500 nM; with `CCCCCCCCCCCCCCCC(=O)NCCCCCC(=O)NCCCC[C@@H]1NC(=O)[C@@H]2CCCN2C(=O)[C@H](C(c2ccccc2)c2ccccc2)NC(=O)[C@H](Cc2c[nH]cn2)NC(=O)[C@H]([C@@H](C)O)NC(=O)[C@@H](NC(=O)CC(C)C)CCC=CCC[C@@H](C(=O)N[C@H](CC(=O)N[C@H](CCCCN)C(N)=O)Cc2ccccc2)NC1=O` (single isomer, unassigned) [Compd 40], over 500 nM.

Source of the values: patent US20240209053A1 (Protagonist Therapeutics, Inc., priority 2021, published 2024).
